Test results reported in PubChem BioAssay AID250 (DTP/NCI, 2004).
Several values for one entry are separate records, joined by “and”; a condition that tells them apart may be missing. Equal entries are not always repeated. Inconclusive results and toxic doses are left out.

Assays:
[1] = test system: BDF1 mice, L1210 leukemia sc, survival T/C; assay: NCI In Vivo Anticancer Drug Screen. Data for tumor model L1210 Leukemia (subcutaneous) in B6D2F1 (BDF1) mice; conditions: higher = longer survival
How it was run: (§1)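 Transplantable tumor-bearing mice; survival or tumor size recorded; result = T/C, treated vs vehicle control.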

[2] = test system: BDF1 mice, L1210 leukemia sc; assay: as above; conditions: endpoint: mean tumor weight, vehicle: water, higher = larger tumour
How it was run: as §1

Compound: O=C(NO)c1ccncc1
- T/C ([1]; endpoint: median survival time, dose: 67.0 mg/kg/injection, schedule: Q#B X027 (ip), vehicle: water): 108 % of control
- T/C ([1]; endpoint: median survival time, dose: 133.0 mg/kg/injection, schedule: Q#B X027 (ip), vehicle: water): 108 % of control
- T/C ([1]; endpoint: median survival time, dose: 200.0 mg/kg/injection, schedule: Q01DX009 (ip), vehicle: water): 108 % of control
- T/C ([1]; endpoint: median survival time, dose: 200.0 mg/kg/injection, schedule: Q#B X027 (ip), vehicle: water): 116 % of control
- T/C ([1]; endpoint: median survival time, dose: 267.0 mg/kg/injection, schedule: Q#B X027 (ip), vehicle: water): 108 % of control
- T/C ([2]; dose: 67.0 mg/kg/injection, schedule: Q#B X027 (ip)): 68 % of control
- T/C ([2]; dose: 133.0 mg/kg/injection, schedule: Q#B X027 (ip)): 58 % of control
- T/C ([2]; dose: 200.0 mg/kg/injection, schedule: Q01DX009 (ip)): 60 % of control
- T/C ([2]; dose: 200.0 mg/kg/injection, schedule: Q#B X027 (ip)): 57 % of control
- T/C ([2]; dose: 267.0 mg/kg/injection, schedule: Q#B X027 (ip)): 41 % of control

Compound: Cn1cnc([N+](=O)[O-])c1Sc1nc(N)nc2nc[nH]c12
- T/C ([1]; endpoint: median survival time, dose: 1.3 mg/kg/injection, schedule: Q01DX Z (sc), vehicle: methylcellulose (MC)): 110 % of control
- T/C ([1]; endpoint: median survival time, dose: 2.16 mg/kg/injection, schedule: Q01DX Z (sc), vehicle: methylcellulose (MC)): 90 % of control and 110 % of control
- T/C ([1]; endpoint: median survival time, dose: 3.0 mg/kg/injection, schedule: Q01DX Z (sc), vehicle: methylcellulose (MC)): 109 % of control
- T/C ([1]; endpoint: median survival time, dose: 3.6 mg/kg/injection, schedule: Q01DX Z (oral), vehicle: methylcellulose (MC)): 100 % of control
- T/C ([1]; endpoint: median survival time, dose: 3.6 mg/kg/injection, schedule: Q01DX Z (sc), vehicle: methylcellulose (MC)): 100 % of control
- T/C ([1]; endpoint: median survival time, dose: 5.0 mg/kg/injection, schedule: Q01DX Z (sc), vehicle: methylcellulose (MC)): 118 % of control
- T/C ([1]; endpoint: median survival time, dose: 6.0 mg/kg/injection, schedule: Q01DX Z (oral), vehicle: methylcellulose (MC)): 109 % of control
- T/C ([1]; endpoint: median survival time, dose: 8.4 mg/kg/injection, schedule: Q01DX Z (oral), vehicle: methylcellulose (MC)): 109 % of control
- T/C ([1]; endpoint: median survival time, dose: 10.0 mg/kg/injection, schedule: Q01DX Z (oral), vehicle: methylcellulose (MC)): 100 % of control
- T/C ([1]; endpoint: median survival time, dose: 14.0 mg/kg/injection, schedule: Q01DX Z (oral), vehicle: methylcellulose (MC)): 122 % of control
- T/C ([1]; endpoint: median survival time, dose: 17.0 mg/kg/injection, schedule: Q01DX Z (oral), vehicle: methylcellulose (MC)): 113 % of control
- T/C ([1]; endpoint: median survival time, dose: 28.0 mg/kg/injection, schedule: Q01DX Z (oral), vehicle: methylcellulose (MC)): 113 % of control
- T/C ([1]; endpoint: median survival time, dose: 47.0 mg/kg/injection, schedule: Q01DX Z (oral), vehicle: methylcellulose (MC)): 109 % of control
- T/C ([1]; endpoint: median survival time, dose: 47.0 mg/kg/injection, schedule: Q01DX Z (sc), vehicle: methylcellulose (MC)): 150 % of control
- T/C ([1]; endpoint: median survival time, dose: 65.0 mg/kg/injection, schedule: Q01DX Z (oral), vehicle: methylcellulose (MC)): 154 % of control
- T/C ([1]; endpoint: median survival time, dose: 78.0 mg/kg/injection, schedule: Q01DX Z (oral), vehicle: methylcellulose (MC)): 118 % of control
- T/C ([1]; endpoint: median survival time, dose: 108.0 mg/kg/injection, schedule: Q01DX Z (oral), vehicle: methylcellulose (MC)): 154 % of control
- T/C ([1]; endpoint: median survival time, dose: 130.0 mg/kg/injection, schedule: Q01DX Z (oral), vehicle: methylcellulose (MC)): 113 % of control
- T/C ([1]; endpoint: median survival time, dose: 216.0 mg/kg/injection, schedule: Q01DX Z (oral), vehicle: methylcellulose (MC)): 118 % of control

Compound: CN(C)/N=N/c1nc[nH]c1C(N)=O
- T/C ([1]; endpoint: mean survival time, dose: 39.0 mg/kg/injection, schedule: Q01DX009 (sc), vehicle: steriod suspending solution): 117 % of control
- T/C ([1]; endpoint: mean survival time, dose: 65.0 mg/kg/injection, schedule: Q01DX009 (sc), vehicle: steriod suspending solution): 115 % of control
- T/C ([1]; endpoint: mean survival time, dose: 300.0 mg/kg/injection, schedule: Q01DX009 (sc), vehicle: steriod suspending solution): 158 % of control
- T/C ([1]; endpoint: median survival time, dose: 39.0 mg/kg/injection, schedule: Q01DX009 (sc), vehicle: steriod suspending solution): 110 % of control and 116 % of control
- T/C ([1]; endpoint: median survival time, dose: 39.0 mg/kg/injection, schedule: Q01DX013 (sc), vehicle: steriod suspending solution): 110 % of control and 111 % of control
- T/C ([1]; endpoint: median survival time, dose: 39.0 mg/kg/injection, schedule: Q01DX Z (sc), vehicle: steriod suspending solution): 110 % of control and 116 % of control
- T/C ([1]; endpoint: median survival time, dose: 65.0 mg/kg/injection, schedule: Q01DX009 (sc), vehicle: other): 111 % of control
- T/C ([1]; endpoint: median survival time, dose: 65.0 mg/kg/injection, schedule: Q01DX009 (sc), vehicle: steriod suspending solution): 110 % of control and 118 % of control and 121 % of control
- T/C ([1]; endpoint: median survival time, dose: 65.0 mg/kg/injection, schedule: Q01DX013 (sc), vehicle: other): 113 % of control
- T/C ([1]; endpoint: median survival time, dose: 65.0 mg/kg/injection, schedule: Q01DX013 (sc), vehicle: steriod suspending solution): 111 % of control and 113 % of control and 115 % of control
- T/C ([1]; endpoint: median survival time, dose: 65.0 mg/kg/injection, schedule: Q01DX017 (oral), vehicle: steriod suspending solution): 124 % of control
- T/C ([1]; endpoint: median survival time, dose: 65.0 mg/kg/injection, schedule: Q01DX Z (sc), vehicle: steriod suspending solution): 121 % of control and 122 % of control
- T/C ([1]; endpoint: median survival time, dose: 65.0 mg/kg/injection, schedule: Q ##X015 (oral), vehicle: steriod suspending solution): 113 % of control
- T/C ([1]; endpoint: median survival time, dose: 65.0 mg/kg/injection, schedule: Q## X015 (oral), vehicle: steriod suspending solution): 116 % of control
- T/C ([1]; endpoint: median survival time, dose: 108.0 mg/kg/injection, schedule: Q01DX009 (sc), vehicle: other): 108 % of control
- T/C ([1]; endpoint: median survival time, dose: 108.0 mg/kg/injection, schedule: Q01DX013 (sc), vehicle: steriod suspending solution): 115 % of control and 117 % of control and 122 % of control
- T/C ([1]; endpoint: median survival time, dose: 108.0 mg/kg/injection, schedule: Q01DX Z (sc), vehicle: steriod suspending solution): 115 % of control
- T/C ([1]; endpoint: median survival time, dose: 108.0 mg/kg/injection, schedule: Q ##X015 (oral), vehicle: steriod suspending solution): 117 % of control
- T/C ([1]; endpoint: median survival time, dose: 108.0 mg/kg/injection, schedule: Q## X015 (oral), vehicle: steriod suspending solution): 116 % of control
- T/C ([1]; endpoint: median survival time, dose: 180.0 mg/kg/injection, schedule: Q01DX009 (sc), vehicle: other): 115 % of control
- T/C ([1]; endpoint: median survival time, dose: 300.0 mg/kg/injection, schedule: Q01DX Z (sc), vehicle: steriod suspending solution): 166 % of control
- T/C ([1]; endpoint: median survival time, dose: 500.0 mg/kg/injection, schedule: Q01DX013 (sc), vehicle: other): 166 % of control
- T/C ([1]; endpoint: median survival time, dose: 500.0 mg/kg/injection, schedule: Q01DX013 (sc), vehicle: steriod suspending solution): 166 % of control
- T/C ([1]; endpoint: median survival time, dose: 500.0 mg/kg/injection, schedule: Q01DX017 (oral), vehicle: steriod suspending solution): 150 % of control
- T/C ([1]; endpoint: median survival time, dose: 500.0 mg/kg/injection, schedule: Q## X015 (oral), vehicle: steriod suspending solution): 150 % of control
- T/C ([1]; endpoint: median survival time, dose: 833.0 mg/kg/injection, schedule: Q ##X015 (oral), vehicle: steriod suspending solution): 158 % of control
- T/C ([1]; endpoint: median survival time, dose: 833.0 mg/kg/injection, schedule: Q## X015 (oral), vehicle: steriod suspending solution): 166 % of control

Compound: O=c1[nH]cc(S)c(=O)[nH]1
- T/C ([1]; endpoint: median survival time, dose: 23.0 mg/kg/injection, schedule: Q01DX Z (sc), vehicle: other): 100 % of control
- T/C ([1]; endpoint: median survival time, dose: 39.0 mg/kg/injection, schedule: Q01DX Z (sc), vehicle: other): 100 % of control
- T/C ([1]; endpoint: median survival time, dose: 65.0 mg/kg/injection, schedule: Q01DX Z (sc), vehicle: other): 100 % of control
- T/C ([1]; endpoint: median survival time, dose: 108.0 mg/kg/injection, schedule: Q01DX Z (sc), vehicle: other): 110 % of control
- T/C ([1]; endpoint: median survival time, dose: 180.0 mg/kg/injection, schedule: Q01DX Z (sc), vehicle: other): 110 % of control
- T/C ([1]; endpoint: median survival time, dose: 300.0 mg/kg/injection, schedule: Q01DX Z (sc), vehicle: other): 100 % of control

Compound: CCOC(=O)C(N)Cc1ccc(N(CCCl)CCCl)cc1 (stereo unspecified)
- T/C ([1]; endpoint: median survival time, dose: 23.0 mg/kg/injection, schedule: Q01DX Z (sc), vehicle: saline): 110 % of control and 119 % of control
- T/C ([1]; endpoint: median survival time, dose: 39.0 mg/kg/injection, schedule: Q01DX Z (sc), vehicle: saline): 104 % of control and 110 % of control
- T/C ([1]; endpoint: median survival time, dose: 65.0 mg/kg/injection, schedule: Q01DX Z (sc), vehicle: saline): 100 % of control and 104 % of control
- T/C ([1]; endpoint: median survival time, dose: 108.0 mg/kg/injection, schedule: Q01DX Z (sc), vehicle: saline): 90 % of control
